Reference: patent US20060167057A1, “Compounds for the treatment of CNS and amyloid associated diseases” (priority 2004, published 2006)

Target: T1, L1 transport system (large neutral amino acid carrier, L1-system carrier) (Rattus norvegicus, UniProt Q63016)
T1 construct: functionality of their endogenous transporters such as the L1-system carrier; endogenous in cells; host or cells: rat primary cerebrovascular (brain microcapillary) endothelial cells, RBEC
Test: Competitive binding assay to the brain L1 transport system (L-[U-14C]phenylalanine on rat primary cerebrovascular endothelial cells)
Settings: for Status of Binding: compounds of Example 4, 10^−6, 10^−5 and 10^−4, Δ versus phenylalanine
Description: Compound samples in PBS (without Ca^+2, Mg^+2)-glucose 30 mM-HEPES 10 mM—DMSO 1% as prepared in Example 1 were thawed and left for at least 30 minutes at 20-23° C. before preparation of the following sub-dilutions for the competitive binding assay: • 200 μL of the stock solution were added to 800 μL PBS (without Ca^+2, Mg^+2)-Glucose-HEPES-1% DMSO (PBSD-1) [diluted 1:5 for a final 1:5 dilution] • 100 μL (1/5 dilution above) were added to 900 μL PBSD-1 [diluted 1:10 for a final 1:50 dilution] • 100 μL (1/50 dilution above) were added to 900 μL PBSD-1 [diluted 1:10 for a final 1:500 dilution]
These sub-dilutions were used immediately or stored overnight at 4° C. before the competitive binding assay. A volume of 45 μL of each of the compound dilutions (1:5, 1:50, 1:500) in PBSD-1 was added to the appropriate wells in the dilution plate.
Brains from sixty 24-day-old rats were dissected individually on a sterile lint moistened with ice cold Hanks' balanced salt solution (Gibco BRL, Grand Island, N.Y.) containing 10 mM HEPES (medium 1) supplemented with 0.1% BSA. Cerebellum, striatum, optic nerves, and brain stem (white matter) were removed. After a mid-sagittal section of the brain, the meninges and leptomeningeal debris were removed by rolling a sterile dry cotton swab on the cortices. (Ichikawa N, Naora K, Hirano H, Hashimoto M, Masumura S, and Iwamoto K (1996). Isolation and primary culture of rat cerebral microvascular endothelial cells for studying drug transport in vitro. J Pharmacol Toxicol Meth 36: 45-52.). Clean cortices were minced in pieces of ≈2 mm^3 in 15 mL of ice-cold medium 1-0.1% BSA. The preparation was divided into 4 sterile pre-weighed tubes and centrifuged at 330× g at 20-25° C. for 5 min. Tubes were weighed and pre-warmed (37° C.) and medium 1 with 0.5% BSA containing 0.3% collagenase and 10 μg/mL DNAse 1 (Roche, Laval, Quebec, Canada) were added to each tube (1 mL/g of tissue).
The brain-collagenase mixture was vigorously agitated in a water bath at 37° C. for 90 min. Fifteen min before the end of the digestion, the tissue was homogenized using a 10-mL pipette until a creamy mixture was obtained (≈20 aspirations). Cells were washed by adding medium 1 with 0.1% BSA to the homogenate (26 mL/tube) and centrifuged at 100× g at 20-25° C. for 7 min. This washing step was repeated 3 more times, once for 5 min and twice for 3 min. Each pellet was re-suspended in 25 mL of a 15% dextran solution prepared in medium 1 with 0.1% BSA and centrifuged at 3200× g at 4° C. for 25 min to isolate vessels from neural tissue and dextran layers. Vascular pellets were re-suspended in 5 mL Ca^++—Mg^++-free-medium 1 with 0.1% BSA (medium 2) at 20-25° C. and transferred in a 50-mL tube. Remaining vessels were collected by rinsing the tubes and pooling the rinsing suspension. (Rupnick M A, Carey A, and Williams S K (1988). Phenotypic diversity in cultured cerebral microvascular endothelial cells in vitro. Cell Develop Biol 24: 435-444.)
The vascular preparation was filtered and rinsed (20 mL of medium 2) through a sterile 355-μm mesh. The 355-μm filtrate was sequentially filtered twice (20 mL of medium 2) through sterile 112-μm meshes and rinsed (Stanimirovic D B, Wong J, Ball R, and Durkin J P (1995). Free radical-induced endothelial membrane dysfunction at the site of the blood-brain barrier: relationship between lipid peroxidation, Na,K-ATPase activity, and ^51Cr release. Neurochem Res 20:1417-1427.) and the latter filtrate was filtered and rinsed through a sterile 20-μm mesh. A final step of filtration and rinse was repeated through a double layer of 20-μm meshes. All 20-μm meshes, which retained the microcapillaries, were then transferred into a 50-mL tube containing 20 mL of a 0.1% collagenase/dispase (Roche) solution in medium 2 supplemented with 10 μg/mL DNAse 1 and 0.147 μg/mL tosyl-lysine-chloromethyl-ketone (Sigma Chemical Co., Oakville, Ontario, Canada) (medium 3).

T1 sequence (Q63016 whole entry): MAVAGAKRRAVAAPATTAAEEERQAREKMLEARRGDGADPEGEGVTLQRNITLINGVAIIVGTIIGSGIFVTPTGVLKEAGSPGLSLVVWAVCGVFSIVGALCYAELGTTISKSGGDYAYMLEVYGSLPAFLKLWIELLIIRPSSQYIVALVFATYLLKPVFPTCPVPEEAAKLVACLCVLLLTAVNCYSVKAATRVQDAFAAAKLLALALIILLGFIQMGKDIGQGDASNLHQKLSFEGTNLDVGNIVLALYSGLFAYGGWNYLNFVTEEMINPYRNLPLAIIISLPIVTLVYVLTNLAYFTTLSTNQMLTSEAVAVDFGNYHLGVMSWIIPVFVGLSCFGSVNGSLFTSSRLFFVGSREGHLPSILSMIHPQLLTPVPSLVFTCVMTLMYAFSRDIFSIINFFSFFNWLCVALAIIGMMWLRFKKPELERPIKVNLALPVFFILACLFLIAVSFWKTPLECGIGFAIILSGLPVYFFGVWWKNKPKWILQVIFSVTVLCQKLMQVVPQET
T1 sequence (Q794F9 whole entry partner): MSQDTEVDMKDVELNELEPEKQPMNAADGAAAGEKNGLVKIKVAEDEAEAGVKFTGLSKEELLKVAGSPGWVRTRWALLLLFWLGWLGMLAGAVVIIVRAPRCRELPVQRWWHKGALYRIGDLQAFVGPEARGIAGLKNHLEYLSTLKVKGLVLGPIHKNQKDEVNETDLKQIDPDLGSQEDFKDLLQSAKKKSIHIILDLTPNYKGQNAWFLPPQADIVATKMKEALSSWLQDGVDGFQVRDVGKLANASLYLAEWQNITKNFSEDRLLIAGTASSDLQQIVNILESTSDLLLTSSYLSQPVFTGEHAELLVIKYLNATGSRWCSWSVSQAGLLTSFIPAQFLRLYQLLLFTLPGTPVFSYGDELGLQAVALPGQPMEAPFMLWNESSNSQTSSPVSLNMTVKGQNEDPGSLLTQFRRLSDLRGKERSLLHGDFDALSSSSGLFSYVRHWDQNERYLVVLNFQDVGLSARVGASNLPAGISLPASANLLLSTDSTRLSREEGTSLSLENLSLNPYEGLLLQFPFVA

Compound	Comparison with the Binding of Phenylalanine (10^−4 M)	Comparison with the Binding of Phenylalanine (10^−5 M)	Comparison with the Binding of Phenylalanine (10^−6 M)	Status of Binding
NC(Cc1ccc(-c2ccc(CSc3ccc4ccccc4n3)cc2)cc1)C(=O)O (centres unmarked) [Compound 159]	0 (X < 0 Rank 0)	0 (X < 0 Rank 0)	1 (0 < X < 10 Rank 1)	
Cc1ccnc(Sc2cccc(-c3cccc(CC(N)C(=O)O)c3)c2)n1 (centres unmarked) [Compound 136]	0 (X < 0 Rank 0)	0 (X < 0 Rank 0)	3 (X > 20 Rank 3)	
NC(Cc1cccc(CSc2nc3ccccc3c(=O)[nH]2)c1)C(=O)O (centres unmarked) [Compound 110]	1 (0 < X < 10 Rank 1)	1 (0 < X < 10 Rank 1)	1 (0 < X < 10 Rank 1)	
N[C@@H](Cc1cccc(CSc2nnc(-c3ccncc3)o2)c1)C(=O)O [drawing 484]				2 (2: 10% ≧ Δ ≧ −10% similar binding affinity to phenylalanine)
N[C@@H](Cc1cccc(CSc2nnnn2-c2ccc(O)cc2)c1)C(=O)O [drawing 480]				3 (3: Δ > 10%, significantly higher binding affinity than phenylalanine)
NC(=O)C(N)Cc1cccc(CSc2nccc(N)n2)n1 (centres unmarked) [Compound 39]	0 (X < 0 Rank 0)	2 (10 < X < 20 Rank 2)	3 (X > 20 Rank 3)	
NC(Cc1ccc(-c2ccc(CSc3ncccc3C(=O)O)cc2)cc1)C(=O)O (centres unmarked) [Compound 93]	0 (X < 0 Rank 0)	0 (X < 0 Rank 0)	1 (0 < X < 10 Rank 1)	
N[C@@H](Cc1cccc(CSc2nccc(O)n2)c1)C(=O)O [drawing 474]				1 (1: −10 > Δ > −50%, lower binding affinity than phenylalanine)
NC(Cc1cccc(CN2CCN(c3ccccn3)CC2)n1)C(=O)O (centres unmarked) [Compound 98]	0 (X < 0 Rank 0)	1 (0 < X < 10 Rank 1)	0 (X < 0 Rank 0)	
Cn1cnnc1SCc1cccc(CC(N)C(=O)O)c1 (centres unmarked) [Compound 141]	0 (X < 0 Rank 0)	0 (X < 0 Rank 0)	1 (0 < X < 10 Rank 1)	
CN(C)CCn1nnnc1SCc1cccc(CC(N)C(=O)O)c1 (centres unmarked) [Compound 73]	1 (0 < X < 10 Rank 1)	3 (X > 20 Rank 3)	1 (0 < X < 10 Rank 1)	
N[C@@H](Cc1ccccc1)C(=O)NC(Cc1cccc(CSc2nnnn2-c2ccc(O)cc2)c1)C(=O)O (some centres unmarked) [Compound 50]	0 (X < 0 Rank 0)	2 (10 < X < 20 Rank 2)	2 (10 < X < 20 Rank 2)	
NC(Cc1cccc(CSc2ncnc3[nH]ncc23)n1)C(=O)O (centres unmarked) [Compound 33]	3 (X > 20 Rank 3)	3 (X > 20 Rank 3)	3 (X > 20 Rank 3)	
CC(=O)c1ccc(N2CCN(Cc3cccc(CC(N)C(=O)O)c3)CC2)cc1 (centres unmarked) [Compound 112]	2 (10 < X < 20 Rank 2)	3 (X > 20 Rank 3)	3 (X > 20 Rank 3)	
NC(=O)C(N)Cc1cccc(CSc2nnc(-c3ccccc3)[nH]2)c1 (centres unmarked) [Compound 14]	0 (X < 0 Rank 0)	3 (X > 20 Rank 3)	2 (10 < X < 20 Rank 2)	
N[C@@H](Cc1cccc(CS(=O)(=O)c2ncc[nH]2)c1)C(=O)O [drawing 483]				1 (1: −10 > Δ > −50%, lower binding affinity than phenylalanine)
NC(Cc1cccc(-c2cccc(N3CCN(c4ccc(F)cc4)CC3)c2)c1)C(=O)O (centres unmarked) [Compound 105]	2 (10 < X < 20 Rank 2)	2 (10 < X < 20 Rank 2)	2 (10 < X < 20 Rank 2)	
N[C@@H](Cc1cccc(CSc2ncnc3[nH]ncc23)n1)C(=O)O [drawing 472]				0 (0: Δ ≦ −50%, no binding or very low binding affinity)
O=C(NC(Cc1cccc(CSc2nccc(O)n2)c1)C(=O)O)NC(c1ccccc1)c1ccccc1 (centres unmarked) [Compound 17]	1 (0 < X < 10 Rank 1)	1 (0 < X < 10 Rank 1)	2 (10 < X < 20 Rank 2)	
NC(Cc1cccc(CSc2nc3cc([N+](=O)[O-])ccc3[nH]2)n1)C(=O)O (centres unmarked) [Compound 94]	1 (0 < X < 10 Rank 1)	1 (0 < X < 10 Rank 1)	1 (0 < X < 10 Rank 1)	
NC(Cc1ccc(-c2ccc(CN3CC=CCC3)cc2)cc1)C(=O)O (centres unmarked) [Compound 44]	0 (X < 0 Rank 0)	1 (0 < X < 10 Rank 1)	0 (X < 0 Rank 0)	
NC(Cc1ccc(-c2ccc(CSc3ncccn3)cc2)cc1)C(=O)O (centres unmarked) [Compound 95]	2 (10 < X < 20 Rank 2)	3 (X > 20 Rank 3)	2 (10 < X < 20 Rank 2)	
Nc1ccnc(SCc2cccc(CC(N)C(=O)O)n2)n1 (centres unmarked) [Compound 38]	2 (10 < X < 20 Rank 2)	3 (X > 20 Rank 3)	3 (X > 20 Rank 3)	
NC(Cc1cccc(CSc2nc(-c3ccccc3)c(-c3ccccc3)[nH]2)n1)C(=O)O (centres unmarked) [Compound 148]	0 (X < 0 Rank 0)	0 (X < 0 Rank 0)	2 (10 < X < 20 Rank 2)	
NC(Cc1ccc(-c2ccc(CSc3ccnc4cc(C(F)(F)F)ccc34)cc2)cc1)C(=O)O (centres unmarked) [Compound 47]	0 (X < 0 Rank 0)	2 (10 < X < 20 Rank 2)	2 (10 < X < 20 Rank 2)	
NC(Cc1ccc(-c2ccc(CSc3nc4ccccc4c(=O)[nH]3)cc2)cc1)C(=O)O (centres unmarked) [Compound 155]	0 (X < 0 Rank 0)	0 (X < 0 Rank 0)	2 (10 < X < 20 Rank 2)	
O=C(Nc1ccc(-c2ccccc2)cc1)NC(Cc1cccc(CSc2nc3ccccc3[nH]2)n1)C(=O)O (centres unmarked) [Compound 62]	0 (X < 0 Rank 0)	0 (X < 0 Rank 0)	3 (X > 20 Rank 3)	
NC(=O)C(N)Cc1cccc(CSc2nnnn2-c2ccc(O)cc2)c1 (centres unmarked) [Compound 4]	2 (10 < X < 20 Rank 2)	3 (X > 20 Rank 3)	3 (X > 20 Rank 3)	
NC(Cc1cccc(CSc2nc3ccccc3[nH]2)n1)C(=O)O (centres unmarked) [Compound 27]	3 (X > 20 Rank 3)	3 (X > 20 Rank 3)	3 (X > 20 Rank 3)	
